The test system of one experiment is CAL-148. As to the kind of experiment: normalised viability (% of control), CellTiter-Blue; higher = more viable cells (about 100 = DMSO control). Conditions: incubation time: 72 h. Here is the method: (§1)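 DSRT, CellTiter-Blue viability, 72 h incubation. Signal is normalised to DMSO and benzethonium chloride controls. Value is the normalised response at dose 9.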
(In general: Resazurin is reduced to fluorescent resorufin, in cell work by metabolically active cells.)

The test system of the next experiment is CAL-51. The description is as above. Particulars: incubation time: 72 h. Here is the method: as §1
A further experiment concerns MDA-MB-468. Conditions: 72 h. The essentials:
(§2)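 The plates used were 384-well plates holding compound at 5 concentrations in 10-fold steps across a compound-specific 10,000-fold range, into which breast cancer cell lines were seeded in 20 µl suspension. Following 72 h incubation, CellTox Green fluorescence was read at 485/520 nm, and CellTiter-Glo luminescence was read after 10 min at room temperature. Normalisation on each plate used 0.1 % DMSO and a positive kill control. Dose-response curves gave the EC50, which was censored at the top concentration.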

Another experiment concerns CAL-120. Conditions: 72 h. In a few lines: as §2
A further experiment concerns HCC1937. As to the kind of experiment: drug sensitivity score (DSS), CellTox Green (DSS (AUC-based score)); higher = stronger drug effect (viability inhibition or cytotoxicity); extreme values may be limits of the assay. Conditions: incubation time: 72 h. In a few lines:
(§3)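 Normalisation on every plate relied on 0.1 % DMSO and a positive kill control. The plates, 384-well format, held compound at 5 concentrations 10-fold apart across a compound-specific 10,000-fold range, and breast cancer cell lines in 20 µl suspension were incubated on them for 72 h before CellTox Green and then CellTiter-Glo readings. The drug sensitivity score derives from the area under the fitted dose-response curve.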

Another experiment has as its system MDA-MB-231. The description is as above. Particulars: incubation time: 72 h. The essentials:
as §3

A further experiment deals with Hs578T. The description is as above. Conditions: incubation time: 72 h. The essentials: as §3

The structures appear in SMILES notation.

As for `N#CC[C@H](C1CCCC1)n1cc(-c2ncnc3[nH]ccc23)cn1` [Ruxolitinib] (10000 nM), the normalised viability in the experiment with CAL-148 worked out at 106%; in the experiment with CAL-51, 87.3%.

With `C=CCNC1=C2C[C@@H](C)C[C@H](OC)[C@H](O)[C@@H](C)/C=C(\C)[C@H](OC(N)=O)[C@@H](OC)/C=C\C=C(/C)C(=O)NC(=CC1=O)C2=O` [Tanespimycin], the entries for the “EC50, CellTiter-Glo” value in the experiment with MDA-MB-468 and in the experiment with CAL-120 were 532 nM and 269 nM, respectively. In addition, the drug sensitivity score was determined as 0 with HCC1937, 25.3 in the experiment on MDA-MB-231 and 1.53 in the experiment on Hs578T.

As for `Cc1ccc(F)c(NC(=O)Nc2ccc(-c3cccc4[nH]nc(N)c34)cc2)c1` [Linifanib], the drug sensitivity score in the experiment with HCC1937, in the experiment with MDA-MB-231 and in the experiment with Hs578T was 0 throughout.

`CCN1CCN(c2ccc(Nc3cc(N(C)C(=O)Nc4c(Cl)c(OC)cc(OC)c4Cl)ncn3)cc2)CC1` [NVP-BGJ398]: the “EC50, CellTiter-Glo” value with CAL-120 turned out to be 252 nM. In addition, the drug sensitivity score with HCC1937 is 0; with MDA-MB-231, 2.84; in the experiment with Hs578T it was 0.

As to `S=c1[nH]cnc2nc[nH]c12` [Mercaptopurine], the “EC50, CellTiter-Glo” value in the experiment with CAL-120 came out at 4710 nM. Further, the drug sensitivity score in the experiment on HCC1937, in the experiment on MDA-MB-231 and in the experiment with Hs578T was 0 each time.

In the case of `C=CC[C@@H]1/C=C(\C)C[C@H](C)C[C@H](OC)[C@H]2O[C@@](O)(C(=O)C(=O)N3CCCC[C@H]3C(=O)O[C@H](/C(C)=C/[C@@H]3CC[C@@H](O)[C@H](OC)C3)[C@H](C)[C@@H](O)CC1=O)[C@H](C)C[C@@H]2OC` [Tacrolimus] (10000 nM), the normalised viability in the experiment on CAL-148 is 115%; with CAL-51 it was 95%.

Take `CS(=O)(=O)c1ccc(C(=O)Nc2ccc(Cl)c(-c3ccccn3)c2)c(Cl)c1` [Vismodegib] (10000 nM): the normalised viability in the experiment with CAL-148 turned out to be 81.6%; in the experiment with CAL-51, 109%.

Regarding `COc1cccc2cc(-c3nc([C@H]4CC[C@H](C(=O)O)CC4)n4ncnc(N)c34)[nH]c12` [OSI-027] (10000 nM), the normalised viability with CAL-148 was determined as 10.6%; in the experiment on CAL-51 it was 14.5%.

On to `CN(C)C/C=C/C(=O)Nc1cc2c(Nc3ccc(F)c(Cl)c3)ncnc2cc1O[C@H]1CCOC1` [Afatinib], for which the “EC50, CellTiter-Glo” value with MDA-MB-468 is 158 nM. Also, the drug sensitivity score with HCC1937 came to 1.72; in the experiment with MDA-MB-231, 0; in the experiment with Hs578T, 1.68.

Regarding `CO[C@H]1C[C@@H]2CC[C@@H](C)[C@@](O)(O2)C(=O)C(=O)N2CCCC[C@H]2C(=O)O[C@H]([C@H](C)C[C@@H]2CC[C@@H](OC(=O)C(C)(CO)CO)[C@H](OC)C2)CC(=O)[C@H](C)/C=C(\C)[C@@H](O)[C@@H](OC)C(=O)[C@H](C)C[C@H](C)/C=C/C=C/C=C/1C` [Temsirolimus], the “EC50, CellTiter-Glo” value with MDA-MB-468 came out at 0.15 nM; in the experiment with CAL-120, 1.08 nM. Further, the figures for the drug sensitivity score in the experiment on HCC1937, in the experiment with MDA-MB-231 and in the experiment on Hs578T were 0, 0 and 22.6, respectively.

Turning to `C[C@]1(c2nc3c(C(N)=O)cccc3[nH]2)CCCN1` [Veliparib], the drug sensitivity score in the experiment with HCC1937, in the experiment on MDA-MB-231 and with Hs578T was 0 throughout.

Regarding `CC[C@]1(O)C[C@@H]2CN(CCc3c([nH]c4ccccc34)[C@@](C(=O)OC)(c3cc4c(cc3OC)N(C)[C@H]3[C@@](O)(C(=O)OC)[C@H](OC(C)=O)[C@]5(CC)C=CCN6CC[C@]43[C@@H]65)C2)C1` [Vinblastine], the “EC50, CellTiter-Glo” value turned out to be 2.95 nM in the experiment on MDA-MB-468 and 2.04 nM in the experiment with CAL-120. Besides, the drug sensitivity score with HCC1937 came out at 0; in the experiment on MDA-MB-231, 17; in the experiment with Hs578T, 21.4.

`S=c1[nH]cnc2nc[nH]c12` [Mercaptopurine] (10000 nM): the normalised viability in the experiment with CAL-148 was 86.6%; in the experiment on CAL-51, 75.1%.

`Nc1nc(Cl)nc2c1ncn2[C@H]1C[C@H](O)[C@@H](CO)O1` [Cladribine]: the entries for the “EC50, CellTiter-Glo” value in the experiment on MDA-MB-468 and in the experiment on CAL-120 were greater than 1000 nM and 445 nM, respectively. For the same compound, the values for the drug sensitivity score with HCC1937, in the experiment on MDA-MB-231 and with Hs578T were 0, 0.0524 and 0, respectively.

Take `COc1cccc2c1C(=O)c1c(O)c3c(c(O)c1C2=O)C[C@@](O)(C(=O)CO)C[C@@H]3O[C@H]1C[C@H](N)[C@H](O)[C@H](C)O1` [Doxorubicin] (1000 nM): the normalised viability in the experiment on CAL-148 is -1.37%; in the experiment on CAL-51, 3.87%.

Regarding `Cc1c2oc3c(C)ccc(C(=O)N[C@@H]4C(=O)N[C@H](C(C)C)C(=O)N5CCC[C@H]5C(=O)N(C)CC(=O)N(C)[C@@H](C(C)C)C(=O)O[C@@H]4C)c3nc-2c(C(=O)N[C@@H]2C(=O)N[C@H](C(C)C)C(=O)N3CCC[C@H]3C(=O)N(C)CC(=O)N(C)[C@@H](C(C)C)C(=O)O[C@@H]2C)c(N)c1=O` [Dactinomycin], the “EC50, CellTiter-Glo” value in the experiment with MDA-MB-468 was 1.54 nM; in the experiment with CAL-120, 10.2 nM. Also, the drug sensitivity score in the experiment on HCC1937 was determined as 0; in the experiment with MDA-MB-231 it was 20.5; in the experiment with Hs578T, 12.5.

With `C[C@]1(c2nc3c(C(N)=O)cccc3[nH]2)CCCN1` [Veliparib] (10000 nM), the results for the normalised viability in the experiment on CAL-148 and with CAL-51 were 94.9% and 94.7%, respectively.

(Values after the supplement of paper PMC4862054.)
